These results are taken from paper PMC5054527, “Mechanism of high affinity inhibition of the human urate transporter URAT1” (Scientific Reports, 2016).

Test in all cases: URAT1 uric acid transport activity assay
Type in all cases: cell-based

Experiment [1] addresses T1, r-V474M rURAT1 point mutant (Rattus norvegicus, UniProt Q3ZAV1, V474M).
T1 construct: expressed in transfected cells; host or cells: HEK-293T
T1 sequence (Q3ZAV1 1-553 V474M): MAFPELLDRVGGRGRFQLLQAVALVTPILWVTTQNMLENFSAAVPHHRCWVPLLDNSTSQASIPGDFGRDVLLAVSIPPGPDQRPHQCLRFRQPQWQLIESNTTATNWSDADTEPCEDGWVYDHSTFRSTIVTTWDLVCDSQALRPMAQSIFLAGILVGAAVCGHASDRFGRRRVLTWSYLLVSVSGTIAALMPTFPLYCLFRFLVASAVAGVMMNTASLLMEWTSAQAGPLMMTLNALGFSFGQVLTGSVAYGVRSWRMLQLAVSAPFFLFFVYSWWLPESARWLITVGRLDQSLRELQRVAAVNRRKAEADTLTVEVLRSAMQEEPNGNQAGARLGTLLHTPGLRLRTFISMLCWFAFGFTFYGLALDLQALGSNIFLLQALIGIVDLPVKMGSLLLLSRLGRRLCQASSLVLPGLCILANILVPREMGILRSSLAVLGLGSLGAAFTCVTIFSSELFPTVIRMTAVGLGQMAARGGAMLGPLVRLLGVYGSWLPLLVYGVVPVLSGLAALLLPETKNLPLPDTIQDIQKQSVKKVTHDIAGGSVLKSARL
The essentials: (§1)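 Readout: 14C-uric acid uptake (100 μM, 10 min) in cells transiently transfected one day earlier with mutant rURAT1. Serially diluted inhibitors were added 5 min before substrate. Triplicate points, four-parameter logistic fit for IC50.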

In experiment [2] the target is T2, r-N35S rURAT1 point mutant (Rattus norvegicus, UniProt Q3ZAV1, N35S).
T2 construct: expressed in transfected cells; host or cells: HEK-293T
T2 sequence (Q3ZAV1 1-553 N35S): T1 sequence (Q3ZAV1 1-553 V474M) with N35S, M474V
The following applies: for fold increased affinity of r-N35S compared to rURAT1: from IC50 values. The essentials: as §1

Experiment [3] deals with T3, r-V25M rURAT1 point mutant (Rattus norvegicus, UniProt Q3ZAV1, V25M).
T3 construct: expressed in transfected cells; host or cells: HEK-293T
T3 sequence (Q3ZAV1 1-553 V25M): T1 sequence (Q3ZAV1 1-553 V474M) with V25M, M474V
The essentials: as §1

The mark [4] stands for this setting: r-N35S, MES pH 5.5, 100 μM 14C-uric acid, read-out: IC50 (uric acid transport).

The structures appear in SMILES notation. Where a chain is given by its changes, count along the chain named. Where two headings read alike, the source gives them in different places.

For the compound `CCc1oc2ccccc2c1C(=O)c1cc(Br)c(O)c(Br)c1` [benzbromarone], the IC50 (in general, the midpoint of a concentration-inhibition curve) in experiment [1] was found to be 17 ± 2.2 µM; in experiment [2], 17 ± 2.1 µM; in experiment [3], 11 ± 2.7 µM.
Take `O=C(O)CSc1nnc(Br)n1-c1ccc(C2CC2)c2ccccc12` [lesinurad, 2-((5-bromo-4-(4-cyclopropylnaphthalen-1-yl)-4H-1,2,4-triazol-3-yl)thio)acetic acid]: the IC50 is 84 ± 3.2 µM in experiment [1] (r-V474M, MES pH 5.5, 100 μM 14C-uric acid, read-out: IC50 (uric acid transport)); 57 ± 6.3 µM in experiment [2] (setting [4]); 59 ± 17 µM in experiment [3] (r-V25M, MES pH 5.5, 100 μM 14C-uric acid, read-out: IC50 (uric acid transport)).
As to `O=C1C(CC[S+]([O-])c2ccccc2)C(=O)N(c2ccccc2)N1c1ccccc1` (stereo not shown) [sulfinpyrazone], the IC50 in experiment [1] (r-V474M, HEPES pH 7.3, 100 μM 14C-uric acid, read-out: IC50 (uric acid transport)) was found to be 732 ± 102 µM; in experiment [2] (r-N35S, HEPES pH 7.3, 100 μM 14C-uric acid, read-out: IC50 (uric acid transport)), 189 ± 32 µM; in experiment [3] (r-V25M, HEPES pH 7.3, 100 μM 14C-uric acid, read-out: IC50 (uric acid transport)), 14 ± 2.3 µM. Moreover, the “fold increased affinity of r-N35S compared to rURAT1” value in experiment [2] is listed as 3.6 fold. The “fold increased affinity of r-V25M compared to rURAT1” value in experiment [3] (from IC50 values) is listed as 49 fold.
With `O=c1[nH]c(=O)c2[nH]c(=O)[nH]c2[nH]1` [uric acid], the “fold increased affinity of r-N35S compared to rURAT1” value in experiment [2] is “no phenotype”. For the same compound, in experiment [2] (setting [4]), the IC50 was 2660 µM.
